The text below walks through data of patent US9150553B2, “Carboxamide compounds and their use as calpain inhibitors” (AbbVie Deutschland GmbH & Co. KG, priority 2007, dated 2015).

Holding throughout (type): biochemical
Assay [1] addresses T1, calpain-I isolated from human erythrocytes (Homo sapiens, UniProt P07384).
T1 construct: calpain-I—isolated from human erythrocytes; purchased Calbiochem 208713; host or cells: human erythrocytes (native tissue isolate)
T1 sequence (P07384 1-714): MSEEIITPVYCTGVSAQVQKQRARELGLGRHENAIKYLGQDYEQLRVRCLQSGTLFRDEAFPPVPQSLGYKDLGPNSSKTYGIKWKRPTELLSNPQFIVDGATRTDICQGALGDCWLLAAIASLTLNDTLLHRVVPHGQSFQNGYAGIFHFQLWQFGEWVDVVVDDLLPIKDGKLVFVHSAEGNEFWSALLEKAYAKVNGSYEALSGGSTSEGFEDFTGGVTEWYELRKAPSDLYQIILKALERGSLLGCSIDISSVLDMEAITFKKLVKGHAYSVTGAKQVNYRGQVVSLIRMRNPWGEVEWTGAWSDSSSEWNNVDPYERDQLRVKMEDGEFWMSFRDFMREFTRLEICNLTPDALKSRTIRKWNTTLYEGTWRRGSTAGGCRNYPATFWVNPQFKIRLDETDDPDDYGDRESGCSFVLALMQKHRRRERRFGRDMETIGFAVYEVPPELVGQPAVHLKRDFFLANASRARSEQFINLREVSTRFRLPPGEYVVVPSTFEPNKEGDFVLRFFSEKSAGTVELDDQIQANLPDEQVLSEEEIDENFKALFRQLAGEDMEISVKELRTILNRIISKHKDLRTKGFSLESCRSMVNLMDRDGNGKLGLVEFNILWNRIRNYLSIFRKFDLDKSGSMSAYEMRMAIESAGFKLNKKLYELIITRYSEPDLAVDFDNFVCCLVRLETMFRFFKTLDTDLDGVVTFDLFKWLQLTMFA
T1 sequence (P04632 1-268 partner): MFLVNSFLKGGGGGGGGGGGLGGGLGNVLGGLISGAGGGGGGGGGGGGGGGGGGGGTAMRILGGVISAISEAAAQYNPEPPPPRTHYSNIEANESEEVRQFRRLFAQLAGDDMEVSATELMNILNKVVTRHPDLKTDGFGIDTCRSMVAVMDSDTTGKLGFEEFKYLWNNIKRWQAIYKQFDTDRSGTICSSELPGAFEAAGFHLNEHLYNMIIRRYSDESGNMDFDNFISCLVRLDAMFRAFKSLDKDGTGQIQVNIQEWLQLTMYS
Briefly: Calpain I enzyme inhibition, kinetic fluorescence assay. The settings on record: apparent Ki from IC50 by Cheng-Prussoff; pH 7.3, room temperature. The procedure:
The following solutions and buffers were employed: • HBS (for 40 ml): 800 μl 1M HEPES; 2.16 ml 100 mM KCl; 4.8 ml 1M NaCl; 3.59 ml 5% glucose; 60 μl 1M MgSO4; 400 μl 100 mM Na pyruvate, 28.19 ml water; pH 7.2-7.5. • lysis buffer (for 20 ml): 400 μl 1M Tris pH 8.2; 2.74 ml 1M NaCl; 520 μl 0.5M EDTA; 2 ml 10% triton X-100; 0.8 ml (=1:25) CompletePlus (1 tablet/2 ml H2O); 200 μl 100 mM Pefabloc; 13.34 ml water, pH 8.2. • TBST (10×) (for 1I): 100 mM Tris (12.1 g); 1.5M NaCl (87 g); 1% Tween 20 (10 g), adjusted to pH 8. I. Enzyme Inhibition In Vitro: • Testing for blockade of the corresponding enzymic activities was carried out by means of kinetic fluorescence assays (excitation 390 nm, emission 460 nm). • Apparent Ki values were calculated from the experimentally determined IC50 values by the Cheng-Prussoff relation assuming a reversible competitive enzyme inhibition. The Km values of the substrates used under the assay conditions indicated above were: 90 μM (Z-Phe-Arg-AMC, cathepsin B), 10 μM (Z-Gly-Pro-Arg-AMC, cathepsin K), 2 μM (Z-Phe-Arg-AMC, cathepsin L), and 30 μM (Z-Val-Val-Arg-AMC, cathepsin S). • The indicated Ki values are averages of the inhibition constants calculated on the basis of 2 to 4 independent dose-effect plots. • The following assays were used: • 1. Calpain I: • 20 nM calpain-I—isolated from human erythrocytes (Calbiochem #208713), 100 μM Suc-Leu-Tyr-AMC (Bachem #I-1355) as substrate in buffer with 62 mM imidazole, 0.3 mM CaCl2, 0.10% CHAPS, 0.05% BSA, 1 mM DTT at pH 7.3 and room temperature. • 2. Cathepsin B: • 0.25 nM cathepsin B—isolated from human liver (Calbiochem #219362), 100 μM Z-Phe-Arg-AMC (Bachem #I-1160) as substrate 50 mM MES, 2 mM EDTA, 0.05% Brij 35, 2.5 mM L-cysteine, pH 6.0, room temperature. • 3. Cathepsin K: • 3 nM cathepsin K—activated from recombinant human procathepsin K from E. coli (Calbiochem #342001), 10 μM Z-Gly-Pro-Arg-AMC (Biomol #P-142) as substrate in 50 mM MES, 2 mM EDTA, 0.05% Brij 35, 2.5 mM L-cysteine, pH 6.0, room temperature. • 4. Cathepsin L: • 1 nM cathepsin L—isolated from human liver (Calbiochem #219402), 2 μM Z-Phe-Arg-AMC (Bachem #I-1160) as substrate in 50 mM MES, 2 mM EDTA, 0.05% Brij 35, 2.5 mM L-cysteine, pH 6.0, room temperature. • 5. Cathepsin S: • 0.5 nM recombinant human cathepsin S from E. coli (Calbiochem #219343), 20 μM Z-Val-Val-Arg-AMC (Bachem #I-1540) as substrate in 50 mM MES, 2 mM EDTA, 0.05% Brij 35, 2.5 mM L-cysteine, pH 6.0, room temperature. • The results of the in vitro determination are indicated in Table 2. The following abbreviations are used in Table 2: • The “Calpain activity” column, ++ stands for a calpain Ki (Ki(calpain)) of ≦40 nM, + means: 40 nM<Ki(Calpain)≦100 nM, 0 means 100 nM<Ki(Calpain)≦1 μM, − means 1 μM<Ki(Calpain)≦10 μM, −− means Ki(Calpain)>10 μM. • The “Sel. cat. B” column indicates the Ki(cathepsin B)/Ki(calpain) ratio. In this connection, ++ means a Ki(cathepsin B)/Ki(calpain) ratio of ≧30 and + means≦10≦Ki(cathepsin B)/Ki(calpain)<30. • The “Sel. cat. K” column indicates the Ki(cathepsin K)/Ki(calpain) ratio. In this connection, ++ means a Ki(cathepsin K)/Ki(calpain) ratio of ≧30 and + means 10≦Ki(cathepsin K)/Ki(calpain)<30. • The “Sel. cat. L” column indicates the Ki(cathepsin L)/Ki(calpain) ratio. In this connection, ++ means a Ki(cathepsin L)/Ki(calpain) ratio of ≧50 and + means 30≦Ki(cathepsin L)/Ki(calpain)<50. • The “Sel. cat. S” column indicates the Ki(cathepsin S)/Ki(calpain) ratio. […]

Assay [2] concerns the target T2, cathepsin B isolated from human liver (Homo sapiens, UniProt P07858).
T2 construct: cathepsin B—isolated from human liver; purchased Calbiochem 219362; host or cells: human liver (native tissue isolate)
Briefly: Cathepsin B enzyme inhibition, kinetic fluorescence assay. The settings on record: selectivity ratio. The procedure:
(§1) The following solutions and buffers were employed: • HBS (for 40 ml): 800 μl 1M HEPES; 2.16 ml 100 mM KCl; 4.8 ml 1M NaCl; 3.59 ml 5% glucose; 60 μl 1M MgSO4; 400 μl 100 mM Na pyruvate, 28.19 ml water; pH 7.2-7.5. • lysis buffer (for 20 ml): 400 μl 1M Tris pH 8.2; 2.74 ml 1M NaCl; 520 μl 0.5M EDTA; 2 ml 10% triton X-100; 0.8 ml (=1:25) CompletePlus (1 tablet/2 ml H2O); 200 μl 100 mM Pefabloc; 13.34 ml water, pH 8.2. • TBST (10×) (for 1I): 100 mM Tris (12.1 g); 1.5M NaCl (87 g); 1% Tween 20 (10 g), adjusted to pH 8. I. Enzyme Inhibition In Vitro: • Testing for blockade of the corresponding enzymic activities was carried out by means of kinetic fluorescence assays (excitation 390 nm, emission 460 nm). • Apparent Ki values were calculated from the experimentally determined IC50 values by the Cheng-Prussoff relation assuming a reversible competitive enzyme inhibition. The Km values of the substrates used under the assay conditions indicated above were: 90 μM (Z-Phe-Arg-AMC, cathepsin B), 10 μM (Z-Gly-Pro-Arg-AMC, cathepsin K), 2 μM (Z-Phe-Arg-AMC, cathepsin L), and 30 μM (Z-Val-Val-Arg-AMC, cathepsin S). • The indicated Ki values are averages of the inhibition constants calculated on the basis of 2 to 4 independent dose-effect plots. • The following assays were used: • 1. Calpain I: • 20 nM calpain-I—isolated from human erythrocytes (Calbiochem #208713), 100 μM Suc-Leu-Tyr-AMC (Bachem #I-1355) as substrate in buffer with 62 mM imidazole, 0.3 mM CaCl2, 0.10% CHAPS, 0.05% BSA, 1 mM DTT at pH 7.3 and room temperature. • 2. Cathepsin B: • 0.25 nM cathepsin B—isolated from human liver (Calbiochem #219362), 100 μM Z-Phe-Arg-AMC (Bachem #I-1160) as substrate 50 mM MES, 2 mM EDTA, 0.05% Brij 35, 2.5 mM L-cysteine, pH 6.0, room temperature. • 3. Cathepsin K: • 3 nM cathepsin K—activated from recombinant human procathepsin K from E. coli (Calbiochem #342001), 10 μM Z-Gly-Pro-Arg-AMC (Biomol #P-142) as substrate in 50 mM MES, 2 mM EDTA, 0.05% Brij 35, 2.5 mM L-cysteine, pH 6.0, room temperature. • 4. […]

The target of assay [3] is T3, cathepsin K activated from recombinant human procathepsin K (Homo sapiens, UniProt P43235).
T3 construct: purchased Calbiochem 342001; host or cells: E. coli
T3 sequence (P43235 115-329): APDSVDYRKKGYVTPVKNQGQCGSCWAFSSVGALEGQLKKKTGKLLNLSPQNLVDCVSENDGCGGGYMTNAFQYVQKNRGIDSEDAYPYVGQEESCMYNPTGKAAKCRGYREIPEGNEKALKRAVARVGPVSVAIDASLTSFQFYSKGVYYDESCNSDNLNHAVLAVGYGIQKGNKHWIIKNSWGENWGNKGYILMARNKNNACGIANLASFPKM
Briefly: Cathepsin K enzyme inhibition, kinetic fluorescence assay. As to conditions: selectivity ratio. The protocol:
as §1

The target of assay [4] is T4, recombinant human cathepsin S (Homo sapiens, UniProt P25774).
T4 construct: purchased Calbiochem 219343; host or cells: E. coli
Briefly: Cathepsin S enzyme inhibition, kinetic fluorescence assay. As to conditions: selectivity ratio. The procedure: as §1

In assay [5] the target is T5, cathepsin L isolated from human liver (Homo sapiens, UniProt P07711).
T5 construct: cathepsin L—isolated from human liver; purchased Calbiochem 219402; host or cells: human liver (native tissue isolate)
Briefly: Cathepsin L enzyme inhibition, kinetic fluorescence assay. As to conditions: selectivity ratio. The procedure:
as §1

pKi: −log10 of the molar value.

T5 sequence (P07711 114-333): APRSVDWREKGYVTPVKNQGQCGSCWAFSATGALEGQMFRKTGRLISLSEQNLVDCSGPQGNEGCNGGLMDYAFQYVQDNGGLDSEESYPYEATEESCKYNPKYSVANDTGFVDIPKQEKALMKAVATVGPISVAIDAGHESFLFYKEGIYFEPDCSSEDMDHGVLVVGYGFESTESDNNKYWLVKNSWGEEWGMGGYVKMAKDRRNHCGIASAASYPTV
T4 sequence (P25774 115-331): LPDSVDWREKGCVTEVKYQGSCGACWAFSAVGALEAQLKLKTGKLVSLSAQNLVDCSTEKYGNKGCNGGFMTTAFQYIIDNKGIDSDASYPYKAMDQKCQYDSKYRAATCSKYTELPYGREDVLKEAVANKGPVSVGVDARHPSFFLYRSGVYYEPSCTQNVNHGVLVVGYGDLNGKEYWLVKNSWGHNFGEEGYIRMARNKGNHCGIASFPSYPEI

On to `NC(=O)C1(C(Cc2ccc(F)cc2)NC(=O)c2cccnc2-n2ccc(-c3ccc(Cl)cc3Cl)n2)OCCO1` (stereo not shown) [Compound I-1, N-[1-[2-(Aminocarbonyl)-1,3-dioxolan-2-yl]-2-(4-fluorophenyl)ethyl]-2-[3-(2,4-dichlorophenyl)-1H-pyrazol-1-yl]nicotinamide], for which the pKi (in general, the Ki on a negative log10 scale, so that one unit is a factor of ten) in assay [1] was less than 5.00.
In the case of `NC(=O)C(=O)C(Cc1ccccc1)NC(=O)c1cccnc1-n1ccc(-c2ccc(F)cc2)n1` (stereo not shown) [II-3, N-(3-amino-1-benzyl-2,3-dioxopropyl)-2-[3-(4-fluorophenyl)-1H-pyrazol-1-yl]nicotinamide], the “Sel cat. B: Ki(cathepsin B)/Ki(calpain) ratio” value in assay [2] is on record as “+ (+ means≦10≦Ki(cathepsin B)/Ki(calpain)<30)”. Besides, the “Sel cat. K: Ki(cathepsin K)/Ki(calpain) ratio” value in assay [3] is recorded as “+ (+ means 10≦Ki(cathepsin K)/Ki(calpain)<30)”. In assay [4], the “Sel cat. S: Ki(cathepsin S)/Ki(calpain) ratio” value is recorded as “++ (++ means a Ki(cathepsin S)/Ki(calpain) ratio of ≧100)”. For the same molecule, in assay [5], the “Sel cat. L: Ki(cathepsin L)/Ki(calpain) ratio” value is “++ (++ means a Ki(cathepsin L)/Ki(calpain) ratio of ≧50)”. Besides, the pKi in assay [1] is 7.00 to 7.40.
Turning to `NC(=O)C(=O)C(Cc1ccccc1)NC(=O)c1cccnc1-n1ccc(-c2cccc(C(F)(F)F)c2)n1` (stereo not shown) [Compound II-2, N-(3-Amino-1-benzyl-2,3-dioxopropyl)-2-{3-[3-(trifluoromethyl)phenyl]-1H-pyrazol-1-yl}nicotinamide], the “Sel cat. B: Ki(cathepsin B)/Ki(calpain) ratio” value in assay [2] is on record as “+ (+ means≦10≦Ki(cathepsin B)/Ki(calpain)<30)”. In addition, the “Sel cat. K: Ki(cathepsin K)/Ki(calpain) ratio” value in assay [3] was “++ (++ means a Ki(cathepsin K)/Ki(calpain) ratio of ≧30)”. The “Sel cat. S: Ki(cathepsin S)/Ki(calpain) ratio” value in assay [4] is given as “++ (++ means a Ki(cathepsin S)/Ki(calpain) ratio of ≧100)”. For the same molecule, the “Sel cat. L: Ki(cathepsin L)/Ki(calpain) ratio” value in assay [5] was “++ (++ means a Ki(cathepsin L)/Ki(calpain) ratio of ≧50)”. In addition, the pKi in assay [1] was not below 7.40.
Regarding `NC(=O)C(=O)C(Cc1ccc(F)cc1)NC(=O)c1cccnc1-n1ccc(-c2ccc(Cl)cc2Cl)n1` (stereo not shown) [II-1, N-[3-amino-1-(4-fluorobenzyl)-2,3-dioxopropyl]-2-[3-(2,4-dichlorophenyl)-1H-pyrazol-1-yl]nicotinamide], in assay [2], the “Sel cat. B: Ki(cathepsin B)/Ki(calpain) ratio” value was “++ (++ means a Ki(cathepsin B)/Ki(calpain) ratio of ≧30)”. In assay [3], the “Sel cat. K: Ki(cathepsin K)/Ki(calpain) ratio” value is “++ (++ means a Ki(cathepsin K)/Ki(calpain) ratio of ≧30)”. Also, in assay [4], the “Sel cat. S: Ki(cathepsin S)/Ki(calpain) ratio” value is “++ (++ means a Ki(cathepsin S)/Ki(calpain) ratio of ≧100)”. Also, the “Sel cat. L: Ki(cathepsin L)/Ki(calpain) ratio” value in assay [5] is given as “++ (++ means a Ki(cathepsin L)/Ki(calpain) ratio of ≧50)”. Moreover, in assay [1], the pKi is 7.00 to 7.40.
